The results in this text go back to publication PMC9558053, “Development of a novel high-throughput screen for the identification of new inhibitors of protein S-acylation” (The Journal of Biological Chemistry, 2022).

The test has as its system endogenous calnexin S-acylation in HEK293T cells. Kind of test: mPEG-click S-acylation of endogenous calnexin in HEK293T cells. The class given is cell-based, human. The conditions noted are these: 25 and 50 μM, 4 h pretreatment + 4 h labeling. From the text: Finally, we tested whether TTZ-1 and TTZ-2 were able to block the S-acylation of endogenous proteins in the absence of zDHHC enzyme overexpression. In order to detect the S-acylation of endogenous proteins, we used mPEG-click, a technique that we developed recently ([49]) that is better suited for the click chemistry–based analysis of S-acylation of endogenously expressed proteins. In this assay, cells are labeled with either palmitate (C16:0), or C16:0-azide, lysed, and then subjected to click chemistry with alkyne-mPEG 5K. The addition of mPEG 5K moieties to S-acylated proteins increases their apparent molecular weight, which can be detected directly by immunoblotting. HEK293T cells were pretreated for 4 h with either TTZ-1 or TTZ-2 at 25 and 50 μM and then labeled with fatty acids for another 4 h in the presence of the compounds. We first assessed the S-acylation of endogenous SNAP23 as it is a close relative of SNAP25 (SNAP25 is not expressed in the non-neuronal HEK293T cell line) ([50], [51]). […]
Figure 10 Activity of TTZ-1 and TTZ-2 against the S-acylation of endogenous proteins in mammalian cells. […] The data were quantified, and the graphs below each set of membranes show mean ± SEM of normalized S-acylation of either endogenous SNAP23 (A) or endogenous calnexin (B). […]

Each structure is given as a SMILES string.

Consider `O=C(Nc1cccc2c1OC(c1nnn[nH]1)CN2)c1ccc(OCCCCc2ccccc2)cc1` (centres unmarked) [TTZ-2, N-(2-(1H-Tetrazol-5-yl)-3,4-dihydro-2H-benzo[b][1,4]oxazin-8-yl)-4-(4-phenylbutoxy)benzamide], for which the “S-acylation of endogenous calnexin” value is reported as “decreased”.

As for `CCCCCCCOc1ccc(C(=O)Nc2cccc3c2OC(c2nnn[nH]2)CN3)cc1` (centres unmarked) [TTZ-1, N-(2-(1H-Tetrazol-5-yl)-3,4-dihydro-2H-benzo[b][1,4]oxazin-8-yl)-4-(heptyloxy)benzamide], the “S-acylation of endogenous calnexin” value is “decreased”.
